Inconclusive results and toxic doses are left out. Rule as the data show it: active = T/C of 150% or more; inactive = T/C below 125%.
Tested on: L1210 leukemia ip in BDF1 mice, survival T/C
Test: NCI In Vivo Anticancer Drug Screen. Data for tumor model L1210 Leukemia (intraperitoneal) in B6D2F1 (BDF1) mice
Settings: endpoint: mean survival time, higher = longer survival
Procedure, shortened: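 Mice bearing the transplanted tumor received compound or vehicle. Survival of the treated group was divided by that of the vehicle-treated control group to give the ratio.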

[1] = dose: 75.0 mg/kg/injection, schedule: Q04DX003 (ip), vehicle: saline
[2] = dose: 150.0 mg/kg/injection, schedule: Q04DX003 (ip), vehicle: saline
[3] = dose: 300.0 mg/kg/injection, schedule: Q04DX003 (ip), vehicle: saline
[4] = dose: 100.0 mg/kg/injection, schedule: Q01DX009 (ip), vehicle: saline with Tween-80
[5] = dose: 200.0 mg/kg/injection, schedule: Q01DX009 (ip), vehicle: saline with Tween-80
[6] = dose: 400.0 mg/kg/injection, schedule: Q01DX009 (ip), vehicle: saline with Tween-80
[7] = dose: 100.0 mg/kg/injection, schedule: Q01DX001 (ip), vehicle: saline
[8] = dose: 100.0 mg/kg/injection, schedule: Q04DX003 (ip), vehicle: saline
[9] = dose: 200.0 mg/kg/injection, schedule: Q01DX001 (ip), vehicle: saline
[10] = dose: 200.0 mg/kg/injection, schedule: Q04DX003 (ip), vehicle: saline
[11] = dose: 400.0 mg/kg/injection, schedule: Q01DX001 (ip), vehicle: saline
[12] = dose: 400.0 mg/kg/injection, schedule: Q04DX003 (ip), vehicle: saline
[13] = dose: 50.0 mg/kg/injection, schedule: Q01DX001 (ip), vehicle: carboxymethylcellulose (CMC)
[14] = dose: 100.0 mg/kg/injection, schedule: Q01DX001 (ip), vehicle: carboxymethylcellulose (CMC)
[15] = dose: 200.0 mg/kg/injection, schedule: Q01DX001 (ip), vehicle: carboxymethylcellulose (CMC)
[16] = dose: 400.0 mg/kg/injection, schedule: Q01DX001 (ip), vehicle: carboxymethylcellulose (CMC)
[17] = dose: 100.0 mg/kg/injection, schedule: Q04DX003 (ip), vehicle: saline with Tween-80

Measured: T/C

COc1ccc(C(=O)/C=C/c2ccc(O)cc2)cc1
inactive: [1] 100 % of control | [2] 96 % of control | [3] 93 % of control

O=P(OCCCl)(OCCCl)C(c1ccccc1)(c1ccccc1)c1ccccc1
inactive: dose: 100.0 mg/kg/injection, schedule: Q01DX009 (ip), vehicle: Klucel (hydroxypropylcellulose) (HPC) 105 % of control | dose: 200.0 mg/kg/injection, schedule: Q01DX009 (ip), vehicle: Klucel (hydroxypropylcellulose) (HPC) 96 % of control | dose: 400.0 mg/kg/injection, schedule: Q01DX009 (ip), vehicle: Klucel (hydroxypropylcellulose) (HPC) 93 % of control

O=C(/C=C\c1cccc2ccccc12)c1ccc2ccccc2c1
inactive: [4] 100 % of control | dose: 100.0 mg/kg/injection, schedule: Q04DX002 (ip), vehicle: saline with Tween-80 88 % of control | [5] 90 % of control | dose: 200.0 mg/kg/injection, schedule: Q04DX002 (ip), vehicle: saline with Tween-80 88 % of control | [6] 93 % of control | dose: 400.0 mg/kg/injection, schedule: Q04DX002 (ip), vehicle: saline with Tween-80 88 % of control

CCC1(CC)COC(=O)NC1=O
inactive: dose: 1.56 mg/kg/injection, schedule: Q01DX009 (ip), vehicle: saline 105 % of control | dose: 3.12 mg/kg/injection, schedule: Q01DX009 (ip), vehicle: saline 116 % of control | dose: 6.25 mg/kg/injection, schedule: Q01DX009 (ip), vehicle: saline 103 % of control | dose: 6.25 mg/kg/injection, schedule: Q04DX003 (ip), vehicle: saline 101 % of control | dose: 12.5 mg/kg/injection, schedule: Q01DX009 (ip), vehicle: saline 103 % of control | dose: 12.5 mg/kg/injection, schedule: Q04DX003 (ip), vehicle: saline 101 % of control | dose: 25.0 mg/kg/injection, schedule: Q01DX009 (ip), vehicle: saline 97 % of control | dose: 25.0 mg/kg/injection, schedule: Q04DX003 (ip), vehicle: saline 87 % of control

CC/C(=C(\CC)c1ccc(OCCOS(=O)(=O)c2ccccc2)cc1)c1ccc(OCCOS(=O)(=O)c2ccccc2)cc1
inactive: dose: 12.5 mg/kg/injection, schedule: Q04DX002 (ip), vehicle: saline 101 % of control | dose: 25.0 mg/kg/injection, schedule: Q04DX002 (ip), vehicle: saline 101 % of control | dose: 50.0 mg/kg/injection, schedule: Q04DX002 (ip), vehicle: saline 101 % of control

Cc1ccccc1Nc1cc(=O)[nH]c(N)n1
inactive: dose: 100.0 mg/kg/injection, schedule: Q01DX Z (ip), vehicle: methylcellulose (MC) 102 % of control | dose: 200.0 mg/kg/injection, schedule: Q01DX Z (ip), vehicle: methylcellulose (MC) 102 % of control

COc1cccc(C2CCCCCC2OS(C)(=O)=O)c1OC (stereo not given)
inactive: [7] 109 % of control | [8] 102 % of control | [9] 102 % of control | [10] 109 % of control | [11] 112 % of control | [12] 102 % of control

CCN(CC)C(C)C(=O)c1ccc2cc(Br)c3ccccc3c2c1 (stereo not given)
inactive: dose: 222.0 mg/kg/injection, schedule: Q01DX Z (ip), vehicle: methylcellulose (MC) 97 % of control | dose: 333.0 mg/kg/injection, schedule: Q01DX Z (ip), vehicle: methylcellulose (MC) 104 % of control | dose: 500.0 mg/kg/injection, schedule: Q01DX Z (ip), vehicle: methylcellulose (MC) 87 % of control

Cc1cc(-n2cnc3c(Cl)ncnc32)ccc1[N+](=O)[O-]
inactive: [13] 110 % of control | [14] 101 % of control | [15] 98 % of control | [16] 112 % of control

c1ccc(-c2ccn(C3CCCCC3)c2-c2ccccc2)cc1
inactive: dose: 100.0 mg/kg/injection, schedule: Q01DX001 (ip), vehicle: saline with Tween-80 87 % of control | dose: 200.0 mg/kg/injection, schedule: Q01DX001 (ip), vehicle: saline with Tween-80 91 % of control | dose: 400.0 mg/kg/injection, schedule: Q01DX001 (ip), vehicle: saline with Tween-80 92 % of control

COc1ccc(NC(=O)Nc2cc([N+](=O)[O-])ccc2F)cc1
inactive: dose: 100.0 mg/kg/injection, schedule: Q04DX003 (ip), vehicle: Klucel (hydroxypropylcellulose) (HPC) 89 % of control | dose: 200.0 mg/kg/injection, schedule: Q04DX003 (ip), vehicle: Klucel (hydroxypropylcellulose) (HPC) 89 % of control | dose: 400.0 mg/kg/injection, schedule: Q04DX003 (ip), vehicle: Klucel (hydroxypropylcellulose) (HPC) 88 % of control

Oc1ccccc1C=Nc1ccccc1S.[Cu+2]
inactive: dose: 100.0 mg/kg/injection, schedule: Q01DX001 (ip), vehicle: other 97 % of control | dose: 200.0 mg/kg/injection, schedule: Q01DX001 (ip), vehicle: other 94 % of control | dose: 400.0 mg/kg/injection, schedule: Q01DX001 (ip), vehicle: other 96 % of control

CCOCC(=O)CC1CCCC1
inactive: dose: 50.0 mg/kg/injection, schedule: Q01DX009 (ip), vehicle: saline with Tween-80 103 % of control | [4] 100 % of control | [5] 95 % of control

O=S(=O)(O)CCCBr
inactive: dose: 100.0 mg/kg/injection, schedule: Q04DX003 (ip), vehicle: acetone 96 % of control | dose: 200.0 mg/kg/injection, schedule: Q04DX003 (ip), vehicle: acetone 95 % of control | dose: 400.0 mg/kg/injection, schedule: Q04DX003 (ip), vehicle: acetone 87 % of control

O=C(O)CSCc1nc2ccccc2[nH]1
inactive: [4] 92 % of control | [17] 101 % of control | [5] 100 % of control | dose: 200.0 mg/kg/injection, schedule: Q04DX003 (ip), vehicle: saline with Tween-80 92 % of control | [6] 96 % of control | dose: 400.0 mg/kg/injection, schedule: Q04DX003 (ip), vehicle: saline with Tween-80 95 % of control

O=c1[nH]nc(-c2ccc(Cl)c(Cl)c2)s1
inactive: dose: 75.0 mg/kg/injection, schedule: Q01DX001 (ip), vehicle: saline 95 % of control | [1] 95 % of control | dose: 150.0 mg/kg/injection, schedule: Q01DX001 (ip), vehicle: saline 92 % of control | [2] 95 % of control | dose: 300.0 mg/kg/injection, schedule: Q01DX001 (ip), vehicle: saline 92 % of control | [3] 96 % of control

CNc1ncccn1
inactive: dose: 50.0 mg/kg/injection, schedule: Q01DX001 (ip), vehicle: saline 109 % of control | [7] 103 % of control | [9] 107 % of control | [11] 107 % of control

Cc1ccc(C(C)NC2=NCCO2)c(C)c1 (stereo not given)
inactive: [17] 105 % of control

CN(C)CCCNC(=O)C1C(c2ccccc2)C1c1ccccc1 (stereo not given)
inactive: dose: 12.5 mg/kg/injection, schedule: Q04DX002 (ip), vehicle: saline with Tween-80 102 % of control | dose: 25.0 mg/kg/injection, schedule: Q04DX002 (ip), vehicle: saline with Tween-80 102 % of control | dose: 50.0 mg/kg/injection, schedule: Q04DX002 (ip), vehicle: saline with Tween-80 91 % of control

CC(O)COCCOCCO (stereo not given)
inactive: [8] 96 % of control | [10] 99 % of control | [12] 94 % of control

CCOC(=O)NC1CC2CCC1C2 (stereo not given)
inactive: [13] 110 % of control | [14] 103 % of control | [15] 103 % of control | [16] 103 % of control

Reference: PubChem BioAssay AID248 (DTP/NCI, 2004)
